The test system of data set [1] is E. coli C175-94. As to the kind of experiment: MIC determination. The class given is cell-based. To be noted: Escherichia coli, C17594; MHB medium; read-out: MIC. As for the experimental part:
(§1) The assay was conducted as described previously ([54]) with the following modifications. The MIC was tested against the K. pneumoniae strain ATCC 43816 in an MHB (not cation-adjusted) medium. CHD and CDCHD were tested in concentrations ranging from 0.078 to 10 µg/mL. Moreover, the MIC was determined for the following strains: K. pneumoniae DSM-30104, E. faecium DSM-20477, S. aureus DSM-346, P. aeruginosa DSM-11128, A. baumannii DSM-30008, E. aerogenes DSM-30053, E. coli ATCC 25922, and E. coli C175-94. All strains were grown in MHB medium, except for E. faecium, which was grown in TSB. CHD, epi-CDH, and CDCHD were tested in concentrations ranging from 0.125 to 64 µg/mL as described previously ([19]).

Data set [2] relates to E. coli C175-94. Description: Ascending urinary tract infection model in OF-1 mice. The class given is in vivo. Conditions: CHD/CDCHD 12 mg/kg SC BID, gentamicin 100 mg/kg SC BID. As for the experimental part:
(§2) The model was conducted as described previously ([27], [60]). In brief, n = 21 animals were used per group in the main study, and n = 3 animals per group in satellite groups for histopathological analysis. Three days before the start of the study and during the study, mice had free access to 5% glucose as drinking water. Fresh overnight colonies of E. coli from a 5% horse blood agar plate were suspended in PBS pH 7.4 to approximately 10^9 cfu/mL. Approximately 1 hour before inoculation, mice were treated orally with […] Nurofen (20 mg ibuprofen/mL corresponding to approximately 30 mg/kg) as a pain relief. Urine was removed from the bladder by gently pressing the abdomen and mice were anaesthetized with 0.15 mL Zoletil mix SC. Thereafter, the mice were inoculated. A syringe with a catheter, containing the bacterial suspension was inserted via the urethra into the bladder and 50 µL of the inoculum was slowly injected into the bladder. Hereafter, the mouse was placed in the cage and kept in a warming cabinet until fully awake (approximately 4 hours). The mice were treated with CHD (12 mg/kg SC BID), CDCHD (12 mg/kg SC BID), gentamicin (100 mg/kg SC BID), or vehicle BID (2nd dose was administered approximately 6 hours after the 1st dose on each day) on day 1, that is, first dose around 24 hours post-infection, and day 2 post-inoculation. The mice were observed during the study and scored based on their behavior and clinical signs. Clinical scoring comprised assessment of piloerection in the skin, activity (movement, curiosity), and appearance of eyes. The scoring range comprised 0–4. In our model, a maximum score of 1; thus, only mild discomfort was observed. On day 3 post-inoculation and after sampling urine, mice were euthanized by cervical dislocation, and bladder and kidneys were removed from 21 mice in each treatment group aseptically for cfu determination. The bladder and kidneys were stored at −80°C and later homogenized in 0.5 or 1 mL saline, respectively. Colony counts of urine were determined immediately. From the three additional mice in each treatment group (satellite groups), urine and plasma were sampled and frozen at −80°C, and bladders, kidneys, and liver were collected in 4% buffered formalin. Cfu was determined in urine samples within 2–3 hours after sampling. Frozen organs were thawed and homogenized with steel beads using a tissue lyser. All samples, urine, kidney, and bladder, were 10-fold diluted in saline and 20 µL spots were applied on blue agar plates in duplicates. In addition, undiluted samples of urine (2–100 μL depending on the available amount of urine) were spread on a separate agar plate to determine the colony counts at the lowest possible detection level. All agar plates were incubated for 18–22 hours at 35°C in ambient air.
(§3) For the neutropenic thigh infection model with E. coli ATCC 25922, the thighs were regarded as two independent infection sites throughout the experiment. For statistical analysis, individual thighs (left and right) were treated as separate samples although these were not completely independent values. For the neutropenic thigh infection model with K. pneumoniae ATCC 43816, the individual thighs (left and right) were treated as one sample. For the efficacy models, the non-parametric Kruskal-Wallis test was used with GraphPad Prism 9.4.1. For the ascending urinary tract infection model, an ordinary one-way ANOVA with Dunnett’s multiple comparison test was used with GraphPad Prism 9.4.1.

Data set [3] can be described thus: Histopathological analysis of kidneys and bladder in the ascending urinary tract infection model (satellite groups). In kind it is in vivo, mice. The arrangement: histopathological score Papilla / histopathological score Bladder: scale not given here. As for the experimental part:
as §2
Approximately 3 µm thick sections of formalin-fixed, paraffin-embedded samples of liver and kidney were analyzed blinded, and randomized to the experimental groups by a trained veterinarian. […] Kidneys were analyzed for changes in the glomeruli (not found), tubular dilation (1 = mild or up to 20% of tubuli affected, 2 = moderate or 25-40% of tubuli affected, 3 = severe 50% or more), and inflammatory infiltrate in the pelvis (1 = mild, 2 = moderate, 3 = severe).

Data set [4] concerns E. coli ATCC 25922. As to the kind of experiment: MIC determination. The class given is cell-based. To be noted: Escherichia coli, ATCC25922; MHB medium; read-out: MIC. As for the experimental part:
as §1

In data set [5] the test system is E. coli ATCC 25922. Description: Neutropenic thigh infection model in CD-1 mice. The class given is in vivo. To be noted: 20 mg/kg IV BID, positive control. The protocol:
(§4) The inoculum for K. pneumoniae ATCC 43816 was prepared freshly as described previously to yield 1 × 10^4 cfu/mL ([56]). The inoculum of the E. coli ATCC 25922 was diluted from a frozen stock to 1.4 × 10^6 cfu/ml. N = 6 animals per group were used for both tested strains. N = 4 mice were used in the pre-treatment group in the neutropenic thigh infection model with E. coli ATCC 25922. Mice were rendered neutropenic by administration of 150 mg/kg and 100 mg/kg cyclophosphamide intraperitoneally on days −4 and −1, respectively. On the day of infection (day 0), mice received 30 µL of the inoculum of K. pneumoniae ATCC 43816 into each lateral thigh under isoflurane anesthesia, corresponding to 6 × 10^2 cfu/mouse. In the model with E. coli, mice received 50 µL of the inoculum of E. coli into each lateral thigh under isoflurane anesthesia, corresponding to 1.4 × 10^5 cfu/mouse. Whilst still under anesthesia, mice were administered a dose of Buprenorphine (0.03 mg/kg) subcutaneously for pain relief. 24 hours after infection, mice were euthanized by slowly introducing CO2 and cardiac puncture to remove blood from the heart immediately after death. Kidneys and thighs were aseptically removed. 24 hours after infection, the clinical score of every individual animal was assessed. Clinical scoring comprises the assessment of different parameters such as spontaneous behavior, posture, appearance, and provoked behavior. Each parameter was assessed with a score of 0 to 3 (ascending severity from 0 to 3). The humane endpoint was reached when the clinical score of a single parameter was 3 or if the total clinical score was higher than 8. Whole blood was collected into Eppendorf tubes coated with 0.5 M EDTA. Organs were homogenized in 0.9% NaCl solution. Organs and blood were plated onto agar plates in duplicates in serial dilutions and incubated at 37°C for 24 hours. 25 µL per dilution of the homogenized organ was spotted onto agar plates. In addition, 1 mL of homogenized organ is streaked onto an agar plate in technical duplicates. If no single colony is observed then, this would result in 0 cfu/mL. Thus, the threshold of detection is 0 log10 cfu/g. The groups used in the different neutropenic thigh infection models are found in Tables S4 through S7. In brief, levofloxacin with 3.3 mg/kg TID IP was used as a positive control antibiotic for the K. pneumoniae model, whereas ciprofloxacin with 20 mg/kg BID IV was used for the E. coli model, respectively. The rationale for TID dosing was based on the PK/PD index of fAUC/MIC for fluoroquinolones ([57] [–] [59]). […] Moreover, CHD and CDCHD were administered at 10 mg/kg SC QID (t = 1,3,5,7 hours), 15 mg/kg SC TID (t = 1,4,7 hours), and 50 mg/kg SC QD (t = 1 hour) (Tables S5 and S6). In the E. coli neutropenic thigh infection model, CHD and CDCHD, respectively, were administered at 50 mg/kg IV QD (t = 1 hour) and 15 mg/kg IV BID (t = 1 and 6 hours) (Table S7).
as §3

Data set [6] concerns K. pneumoniae ATCC 43816. As to the kind of experiment: MIC determination. The class given is cell-based. To be noted: Klebsiella pneumoniae, ATCC43816; MHB (not cation-adjusted) medium; read-out: MIC. The protocol: as §1
Data set [7] relates to K. pneumoniae ATCC 43816. Description: Neutropenic thigh infection model in CD-1 mice. In kind it is in vivo. To be noted: levofloxacin 3.3 mg/kg IP TID. As for the experimental part: as §4, §3
Where [8] appears, read: infected mice, CHD/CDCHD 12 mg/kg SC BID, gentamicin 100 mg/kg SC BID.
The mark [9] stands for this setting: 24 hours after infection, CHD/CDCHD 10 mg/kg SC QD or BID, vs vehicle.

What is called MIC is the smallest concentration in the dilution series that meets the test's criterion for growth inhibition.

In brackets after ≈: the same amount, converted by molar mass.

As for `CNC(C)C1CCC(N)C(OC2C(N)CC(N)C(OC3OCC(C)(O)C(NC)C3O)C2O)O1` (stereo not drawn) [gentamicin, reference compound], in the data set with E. coli C175-94 [1], the minimum inhibitory concentration (MIC) came to 0.75 µg/mL (≈ 1.57 µM). For the same compound, in the data set on E. coli C175-94 [2] (control animals 23.8%), the “animals with sterile kidneys” value is 95.2%. Besides, in the data set with E. coli C175-94 [2] (day 3, vs vehicle), the “bacterial burden in kidneys” value was “strong and significant reduction”; the “bacterial burden in the bladder” value is reported as “The same was observed for gentamicin”. Moreover, the “histopathological score Bladder” value in data set [3] (animal No. 1) worked out at 1. In addition, in data set [3] (animal No. 2), the “histopathological score Bladder” value is 0. The “histopathological score Bladder” value in data set [3] (animal No. 3) is listed as 1. Also, in data set [3] (setting [8]), the “histopathological findings in bladder” value is listed as “mild, focal, submucosal inflammatory aggregates” and the “histopathological findings in kidneys” value is “only a mild tubulus dilation without inflammatory cells in the renal pelvis”.

On to `O=C(O)c1cn(C2CC2)c2cc(N3CCNCC3)c(F)cc2c1=O` [ciprofloxacin, reference compound], for which the MIC in the data set on E. coli ATCC 25922 [4] worked out at 0.008 µg/mL (≈ 0.0241 µM). For the same compound, in the data set with E. coli ATCC 25922 [5], the “bacterial burden in the thigh, compared with CHD and CDCHD” value was “exerted a stronger effect”.

Take `C[C@H]1COc2c(N3CCN(C)CC3)c(F)cc3c(=O)c(C(=O)O)cn1c23` [levofloxacin, reference compound]: in the data set on K. pneumoniae ATCC 43816 [6], the MIC was determined as 0.08 µg/mL (≈ 0.221 µM). For the same compound, in the data set on K. pneumoniae ATCC 43816 [7] (setting [9]), the “bacterial burden in blood” value is listed as “The same was found in blood” and the “bacterial burden in the thigh” value is listed as “A significant reduction of bacterial burden”. In the data set with K. pneumoniae ATCC 43816 [7] (higher-dose studies: 10 mg/kg SC QID, 15 mg/kg SC TID, 50 mg/kg SC QD), the “bacterial burden in the kidney” value is “did not reduce bacterial burden with statistical significance”.
